{"source": "patent US20260041649A1", "about": "“ANTI-INFLAMMATORY AGENT” (WATANABE OYSTER LABORATORY, CO., LTD., priority 2023, published 2026)", "system": "mouse macrophage RAW264.7 cells", "assay": "Western blotting of proteins related to proliferation", "format": "cell-based", "conditions": "DHMBA 10 μM, 3 days", "protocol": "RAW264.7 cells (1×10^6 cells/10 ml of medium in 100 mm dish) were cultured for 3 days in a DMEM culture medium containing 10% FBS, 1% P/S, and 1% fungizone in the control group (1% ethanol; 0 μM DHMBA as final concentration) and the DHMBA treated group (10 μM). After the culture, cells were removed from the dish using a cell scraper in a cell lysis buffer containing protease inhibitors. Forty micrograms of supernatant protein per lane were separated by electrophoresis on a 12% SDS-PAGE gel, transferred onto a […], and probed by Western blotting with antibodies against various proteins. […] In FIG. 3(B), band intensities are shown as fold increase over the control. Data are presented as the mean±SD of values obtained from 4 dishes using different cell preparations. *: Significant difference (p<0.001) between the control group and the DHMBA-treated group. Statistical analysis was performed using 1-way ANOVA with Tukey-Kramer post-test.\nRAW264.7 cells (1×10^6 cells/10 ml of 100 mm dish) were cultured for 3 days in 10% FBS, 1% P/S (1% ethanol), or in the DHMBA-treated group (10 μM). After the culture, the dishes were washed with cold PBS (10 ml) to remove floating and dead cells. The cell lysis buffer (Cell Signaling Technology, Inc., Danvers, MA, USA) supplemented with protease/protein phosphatase inhibitor (Roche Diagnostics, Indianapolis, IN, USA) was added to the cells to collect cell lysates of the adherent cells as described in the previous study. The cell lysates were centrifuged at 17,000×g, 4° C. for 10 min. Protein concentrations in the supernatants were measured using Bio-Rad Protein Assay Dye (Bio-Rad Laboratories, Inc., Hercules, CA, USA) with bovine serum albumin as a standard. The cell lysates were stored at −80° C. until use. The supernatant proteins (40 μg/lane) were separated by SDS-polyacrylamide gel electrophoresis (12% SDS-PAGE) and transferred to a PVDF membrane. The transferred membranes were immunoblotted with specific antibodies against various proteins, including Ras (cat. no. 3339, rabbit), Akt (cat. no. 9272, rabbit), mitogen-activated protein kinase (MAPK; cat. no. 4695, rabbit), phosphorylated MAPK (cat. no. 4370, rabbit), mechanistic target of rapamycin (mTOR; cat. no. 4517, mouse), Rb (cat. no. 9309, mouse), p21 (cat. no. 2947, rabbit), STAT3 (cat. no. 12640, rabbit), COX-1 (cat. no. 48415), COX-2 (cat. no. 4842), and β-actin (cat. no. 3700, mouse), all of which were purchased from Cell Signaling Technology, Inc. (Danvers, MA, USA). Specific antibodies for p53 (cat. no. sc-126, mouse) and NF-κB p65 (cat. no. sc-109, rabbit) were purchased from Santa Cruz Biotechnology Inc. (Santa Cruz, CA, USA). Additionally, rabbit anti-regucalcin antibody (cat. no. HPA029103, rabbit) was obtained from Sigma-Aldrich. Target proteins were incubated overnight at 4° C. with one of the above primary antibodies (1:1,000). After incubation, the membranes were further incubated with horseradish peroxidase-conjugated secondary antibodies (Santa Cruz Biotechnology Inc., cat. no. sc-2005 (mouse) or sc-2305 (rabbit); dilution 1:2000) for 60 min at room temperature, and protein bands were detected using chemiluminescence substrates (cat. no. 34577, Thermo Fisher Scientific Inc., Rockford, IL, USA) on X-ray films. From 4 independent experiments, a total of 3 or 4 films with separate membranes were scanned with Epson Perfection 1660 Photo scanner to quantify the bands using Image J2 software (National Institutes of Health, Bethesda, MD, USA). In addition, for immunoblotting using additional antibodies, the membranes were incubated at room temperature for 30 min with Restore (registered trademark) Western Blot Stripping Buffer (cat. no. 21059; Thermo Fisher Scientific Inc., Rockford, IL, USA) to remove attached chemiluminescence substrates (Thermo Fisher Scientific Inc.,) and were used to measure other protein molecules.", "data": [{"smiles": "COc1c(O)cc(CO)cc1O", "note": "[DHMBA, 3,5-dihydroxy-4-methoxybenzyl alcohol]", "values": [{"measurement": "expression level of Rb", "value": "increased"}, {"measurement": "expression level of p21", "value": "increased"}, {"measurement": "expression level of p53", "value": "increased"}, {"measurement": "expression level of regucalcin", "value": "increased"}, {"measurement": "level of Akt", "value": "decreased"}, {"measurement": "level of MAPK", "value": "decreased"}, {"measurement": "level of PI3 kinase", "value": "decreased"}, {"measurement": "level of Ras", "value": "decreased"}, {"measurement": "level of mTOR", "value": "decreased"}, {"measurement": "level of phospho-MAPK", "value": "decreased"}]}]}
